Laboratory results as given in patent publication US20100130737A1, “Regulating Agent of GPR34 Receptor Function” (TAKEDA PHARMACEUTICAL COMPANY LIMITED, priority 2005, published 2010).

| SMILES | melting point |
| --- | --- |
| O=C(N[C@@H](Cc1ccc(OCc2ccoc2)cc1)C(=O)O)c1cc2cc(-c3ccc(Cl)cc3)ccc2o1 [Example C152, N-{[5-(4-Chlorophenyl)-1-benzofuran-2-yl]carbonyl}-O-(3-furylmethyl)tyrosine] | 211 to 212 °C |
| Cc1cccc(COc2ccc(C[C@H](NC(=O)c3cn4ccc(-c5ccc(Cl)cc5)cc4n3)C(=O)O)cc2)c1 [Example E60, N-{[7-(4-Chlorophenyl)imidazo[1,2-a]pyridin-2-yl]carbonyl}-O-(3-methylbenzyl)tyrosine] | 245 to 246 °C |
| Nc1c(C(=O)NC(Cc2ccc(OCc3ccccc3)cc2)C(=O)O)oc2ccc(-c3ccc(Cl)cc3)cc12 (stereo not drawn) [Example C149] | 250 °C |
| O=C(N[C@@H](Cc1ccc(OCc2ccccc2)cc1)C(=O)O)c1cn2cc(-c3ccc(Cl)cc3Cl)ccc2n1 [Example E40, O-Benzyl-N-{[6-(2,4-dichlorophenyl)imidazo[1,2-a]pyridin-2-yl]carbonyl}tyrosine] | 237 to 239 °C |
| O=C(/C=C/c1cccc(-c2ccc(Cl)cc2)n1)NC(Cc1ccc(OCc2ccccc2)cc1)C(=O)O (stereo not drawn) [Example D3, O-Benzyl-N-{3-[6-(4-chlorophenyl)pyridin-2-yl]acryloyl}tyrosine] | 226 to 228 °C |
| O=C(CCc1ccc(F)cc1)NC1(C(=O)O)Cc2ccc(-c3ccc(Cl)cc3)cc2C1 (stereo not drawn) [Example B132, 5-(4-Chlorophenyl)-2-{[3-(4-fluorophenyl)propanoyl]amino}indan-2-carboxylic acid] | 220 °C |
| Cc1cc2nc(C(=O)NC(Cc3ccc(OCc4ccccc4)cc3)C(=O)O)cn2c(C)c1-c1ccc(Cl)cc1 (stereo not drawn) [Example E36] | 250 to 251 °C |
| O=C(Cc1ccc(OCc2ccncc2)cc1)NC1(C(=O)O)Cc2ccc(-c3ccc(Cl)cc3)cc2C1 (stereo not drawn) [Example B163, 5-(4-Chlorophenyl)-2-({[4-(pyridin-4-ylmethoxy)phenyl]acetyl}amino)indan-2-carboxylic acid] | 128 °C |
| O=C(N[C@@H](Cc1ccc(OCc2ccoc2)cc1)C(=O)O)c1cc2ccc(-c3ccc(Cl)cc3)cc2s1 [Example C124, N-{[6-(4-Chlorophenyl)-1-benzothiophene-2-yl]carbonyl}-O-(3-furylmethyl) tyrosine] | 200 to 201 °C |
| O=C(Cc1ccc(Oc2ccsc2)cc1)NC1(C(=O)O)Cc2ccc(-c3ccc(Cl)cc3)cc2C1 (stereo not drawn) [Example B164, 5-(4-Chlorophenyl)-2-({[4-(3-thienyloxy)phenyl]acetyl}amino)indan-2-carboxylic acid] | 226 to 228 °C |
| Cc1c(C(=O)NC2(C(=O)O)Cc3ccc(Br)cc3C2)oc2cc(-c3ccc(Cl)cc3)ccc12 (stereo not drawn) [Example C114, 5-Bromo-2-({[6-(4-chlorophenyl)-3-methyl-1-benzofuran-2-yl]carbonyl}amino)indan-2-carboxylic acid] | 227 °C |
| O=C(CCCSc1ccc2ccccc2c1)NC1(C(=O)O)Cc2ccc(-c3ccc(Cl)cc3)cc2C1 (stereo not drawn) [Example B170, 5-(4-Chlorophenyl)-2-{[4-(2-naphthylthio)butanoyl]amino}indan-2-carboxylic acid] | 210 to 212 °C |
| COc1cc(F)c(-c2ccc3nc(C(=O)N[C@@H](Cc4ccc(OCc5ccccc5)cc4)C(=O)O)cn3c2)c(F)c1 [Example E46, O-Benzyl-N-{[6-(2,6-difluoro-4-methoxyphenyl)imidazo[1,2-a]pyridin-2-yl]carbonyl}tyrosine] | 219 °C |
| O=C(O)CCNC(=O)C1(NC(=O)Cc2ccc(OCc3ccc(F)cc3)cc2)Cc2ccc(-c3ccc(Cl)cc3)cc2C1 (stereo not drawn) [Example B150, N-({5-(4-Chlorophenyl)-2-[({4-[(4-fluorobenzyl)oxy]phenyl}acetyl)amino]-2,3-dihydro-1H-inden-2-yl)carbonyl)-O-alanine] | 214 °C |
| O=C(O)C1(NS(=O)(=O)Cc2ccc(F)cc2)Cc2ccc(-c3ccc(Cl)cc3)cc2C1 (stereo not drawn) [Example B130, 5-(4-Chlorophenyl)-2-{[(4-fluorobenzyl)sulfonyl]amino}indan-2-carboxylic acid] | 210 to 213 °C |
